US20230159496A1, “COMPOUNDS AND METHODS FOR MODULATING SPLICING” (REMIX THERAPEUTICS INC., priority 2020, published 2023)
Where a name gives a salt, the structure may show the parent alone. Read-outs that look alike come from different tables or passages of the source.

Assays:
Format in all cases: cell-based
SMN2 CJ mRNA = assay: Gene panel canonical junction qPCR assay, SMN2; details: decrease in CJ mRNA levels, gene panel; read-out: SMN2 IC50
Description: (§1) The expression of a target mRNA was measured by detecting the formation of an exon-exon junction in the canonical transcript (CJ). A compound mediated exon-inclusion event was detected by observing an increase in formation of a new junction with an alternative exon (AJ). Real-time qPCR assays were used to detect these splicing switches and interrogate the potency of various compounds towards different target genes. A high-throughput real time quantitative PCR (RT-qPCR) assay was developed to measure these two isoforms of the mRNA (CJ and AJ) for an exemplary gene, HTT, together with a control housekeeping gene, GAPDH or GUSB or PPIA, used for normalization. Briefly, the A673 or K562 cell line was treated with various compounds described herein (e.g., compounds of Formula (I)). After treatment, the levels of the HTT mRNA targets were determined from each sample of cell lysate by cDNA synthesis followed by qPCR. The A673 cell line was cultured in DMEM with 10% FBS. Cells were diluted with full growth media and plated in a 96-well plate (15,000 cells in 100 ul media per well). The plate was incubated at 37° C. with 5% CO2 for 24 hours to allow cells to adhere. An 11-point 3-fold serial dilution of the compounds was made in DMSO then diluted in media in an intermediate plate. Compounds were transferred from the intermediate plate to the cell plate with the top dose at a final concentration of 10 uM in the well. Final DMSO concentration was kept at or below 0.25%. The cell plate was returned to the incubator at 37° C. with 5% CO2 for an additional 24 hours. The K562 cell line was cultured in IMDM with 10% FBS. For K562, cells were diluted with full growth media and plated in either a 96-well plate (50,000 cells in 50 uL media per well) or a 384-well plate (8,000-40,000 cells in 45 uL media per well). An 11-point 3-fold serial dilution of the compounds were made in DMSO then diluted in media in an intermediate plate. Compound was transferred from the intermediate plate to the cell plate with the top dose at a final concentration of 10 uM in the well. Final DMSO concentration was kept at or below 0.25%. Final volume was 100 uL for 96-well plate and 50 uL for 384-well plate. The cell plate was then placed in an incubator at 37° C. with 5% CO2 for 24 hours. The cells were then gently washed with 50 uL-100 uL cold PBS before proceeding to addition of lysis buffer. 30 uL-50 uL of room temperature lysis buffer with DNAse I (and optionally RNAsin) was added to each well. Cells were shaken/mixed thoroughly at room temperature for 5-10 minutes for lysis to take place and then 3 uL-5 uL of room temperature stop solution was added and wells were shaken/mixed again. After 2-5 minutes, the cell lysate plate was transferred to ice for RT-qPCR reaction setup. The lysates could also be frozen at −80° C. for later use. In some cases, a direct lysis buffer was used. An appropriate volume of 3× lysis buffer (10 mM Tris, 150 mM NaCl, 1.5%-2.5% Igepal and 0.1-1 U/uL RNAsin, pH 7.4) was directly added to either K562 or A673 cells in media and mixed by pipetting 3 times. The plates were then incubated at room temperature with shaking/rocking for 20-50 minutes to allow for lysis to take place. After this time, the cell lysate plate was transferred to ice to set up for the RT-qPCR reactions. The lysates could also be frozen at −80° C. for later use. To set up 10 uL RT-qPCR reactions, cell lysates were transferred to 384-well qPCR plates containing the master mix according to the table below. The plates were sealed, gently vortexed, and spun down before the run. The volumes were adjusted accordingly in some instances where the reaction was carried in 20 uL. The table below summarizes the components of the RT-qPCR reactions: The RT-qPCR reaction was performed using a QuantStudio (ThermoFisher) under the following fast cycling conditions. All samples and standards were analyzed at least in duplicate.

Target C CJ mRNA = assay: Gene panel canonical junction qPCR assay, Target C; details: decrease in CJ mRNA levels, gene panel; read-out: Target C IC50
Description: as §1

HTT mRNA = assay: Splicing assay (RT-qPCR) monitoring HTT canonical junction (CJ) and alternative junction (AJ) mRNA isoforms; details: A673 or K562 cells, 24 h treatment, top dose 10 uM
Description: Compounds described herein were used to modulate RNA transcript abundance in cells. The expression of a target mRNA was measured by detecting the formation of an exon-exon junction in the canonical transcript (CJ). A compound mediated exon-inclusion event was detected by observing an increase in formation of a new junction with an alternative exon (AJ). Real-time qPCR assays were used to detect these splicing switches and interrogate the potency of various compounds towards different target genes. A high-throughput real time quantitative PCR (RT-qPCR) assay was developed to measure these two isoforms of the mRNA (CJ and AJ) for an exemplary gene, HTT, together with a control housekeeping gene, GAPDH or GUSB or PPIA, used for normalization. Briefly, the A673 or K562 cell line was treated with various compounds described herein (e.g., compounds of Formula (I)). After treatment, the levels of the HTT mRNA targets were determined from each sample of cell lysate by cDNA synthesis followed by qPCR.
• Cells-to-CT 1-step kit: ThermoFisher A25602, Cells-to-CT lysis reagent: ThermoFisher 4391851C, TaqMan™ Fast Virus 1-Step Master Mix: ThermoFisher 4444436 • GAPDH: VIC-PL, ThermoFisher 4326317E (Assay: Hs99999905_m1)—used for K562/suspension cell lines • GUSB: VIC-PL, ThermoFisher 4326320E (Assay: Hs99999908_m1)—used for K562/suspension cell lines • PPIA: VIC-PL, ThermoFisher 4326316E (Assay: Hs99999904_m1) — used for A673/adherent cell lines
The A673 cell line was cultured in DMEM with 10% FBS. Cells were diluted with full growth media and plated in a 96-well plate (15,000 cells in 100 ul media per well). The plate was incubated at 37° C. with 5% CO2 for 24 hours to allow cells to adhere. An 11-point 3-fold serial dilution of the compounds was made in DMSO then diluted in media in an intermediate plate. Compounds were transferred from the intermediate plate to the cell plate with the top dose at a final concentration of 10 uM in the well. Final DMSO concentration was kept at or below 0.25%. The cell plate was returned to the incubator at 37° C. with 5% CO2 for an additional 24 hours.
The K562 cell line was cultured in IMDM with 10% FBS. For K562, cells were diluted with full growth media and plated in either a 96-well plate (50,000 cells in 50 uL media per well) or a 384-well plate (8,000-40,000 cells in 45 uL media per well). An 11-point 3-fold serial dilution of the compounds were made in DMSO then diluted in media in an intermediate plate. Compound was transferred from the intermediate plate to the cell plate with the top dose at a final concentration of 10 uM in the well. Final DMSO concentration was kept at or below 0.25%. Final volume was 100 uL for 96-well plate and 50 uL for 384-well plate. The cell plate was then placed in an incubator at 37° C. with 5% CO2 for 24 hours.
The cells were then gently washed with 50 uL-100 uL cold PBS before proceeding to addition of lysis buffer. 30 uL-50 uL of room temperature lysis buffer with DNAse I (and optionally RNAsin) was added to each well. Cells were shaken/mixed thoroughly at room temperature for 5-10 minutes for lysis to take place and then 3 uL-5 uL of room temperature stop solution was added and wells were shaken/mixed again. After 2-5 minutes, the cell lysate plate was transferred to ice for RT-qPCR reaction setup. The lysates could also be frozen at −80° C. for later use.
In some cases, a direct lysis buffer was used. An appropriate volume of 3× lysis buffer (10 mM Tris, 150 mM NaCl, 1.5%-2.5% Igepal and 0.1-1 U/uL RNAsin, pH 7.4) was directly added to either K562 or A673 cells in media and mixed by pipetting 3 times. The plates were then incubated at room temperature with shaking/rocking for 20-50 minutes to allow for lysis to take place. After this time, the cell lysate plate was transferred to ice to set up for the RT-qPCR reactions. The lysates could also be frozen at −80° C. for later use. […]

HTT CJ mRNA = assay: Gene panel canonical junction qPCR assay, HTT; details: decrease in CJ mRNA levels, gene panel; read-out: HTT IC50
Description: as §1

[1] = decrease in CJ mRNA (50% response), read-out: HTT CJ AC50
[2] = increase in AJ mRNA (50% response), read-out: HTT AJ AC50

Row | Structure (SMILES) | IC50 (SMN2 CJ mRNA) | IC50 (Target C CJ mRNA) | IC50 (HTT CJ mRNA) | AC50 (HTT mRNA; [1]) | AC50 (HTT mRNA; [2])
1 | CN1CCN(c2ccc3nc(-c4ccc5nn(C)cc5c4)[nH]c(=O)c3c2)CC1 [Compound 108, 2-(2-methyl-2H-indazol-5-yl)-6-(4-methylpiperazin-1-yl)quinazolin-4(3H)-one] | 1 to 10 µM | 1 to 10 µM | > 10 µM | > 10 µM | > 10 µM
2 | CN1CCN(c2ccc3c(=O)n(-c4ccc5nn(C)cc5c4)cnc3c2)CC1 [Compound 152, 3-(2-methyl-2H-indazol-5-yl)-7-(4-methylpiperazin-1-yl)quinazolin-4(3H)-one] | > 10 µM | > 10 µM | > 10 µM | > 10 µM | > 10 µM
3 | Cn1cc2cc(-n3cnc4cc(N5CCNCC5)ccc4c3=O)ccc2n1 [Compound 153, 3-(2-methyl-2H-indazol-5-yl)-7-(piperazin-1-yl)quinazolin-4(3H)-one] | 1 to 10 µM | – | > 10 µM | > 10 µM | > 10 µM
4 | Cn1cc2cc(-n3cnc4cc(C5=CCNCC5)ccc4c3=O)ccc2n1 [Compound 158, 3-(2-methyl-2H-indazol-5-yl)-7-(1,2,3,6-tetrahydropyridin-4-yl)quinazolin-4(3H)-one] | > 10 µM | – | > 10 µM | > 10 µM | > 10 µM
5 | CN1CC=C(c2ccc3c(=O)n(-c4ccc5nn(C)cc5c4)cnc3c2)CC1 [Compound 159, 7-(1-methyl-1,2,3,6-tetrahydropyridin-4-yl)-3-(2-methyl-2H-indazol-5-yl)quinazolin-4(3H)-one] | > 10 µM | – | > 10 µM | > 10 µM | > 10 µM
6 | Cn1cc2cc(-n3cnc4cc(NC5CCNCC5)ccc4c3=O)ccc2n1 [Compound 162] | > 10 µM | – | > 10 µM | > 10 µM | > 10 µM
7 | Cc1cc(-c2ccc3nc(N4CCN(C)CC4)[nH]c(=O)c3c2)cc2cn(C)nc12 [Compound 165, 6-(2,7-dimethyl-2H-indazol-5-yl)-2-(4-methylpiperazin-1-yl)quinazolin-4(3H)-one] | 0.1 to 1 µM | – | > 10 µM | > 10 µM | > 10 µM

Now from value to molecule, other results behind:

Row | IC50 (SMN2 CJ mRNA) | IC50 (Target C CJ mRNA) | IC50 (HTT CJ mRNA) | Structure (SMILES) | AC50 (HTT mRNA; [1]) | AC50 (HTT mRNA; [2])
8 | 0.1 to 1 µM | – | 1 to 10 µM | Cc1cc(-c2ccc3c(=O)n(C4CCN(C)CC4)cnc3c2)cc2cn(C)nc12 [Compound 156] | 1 to 10 µM | 1 to 10 µM
9 | 1 to 10 µM | – | > 10 µM | Cc1cc(-c2ccc3c(=O)n(C4CC(C)(C)NC(C)(C)C4)cnc3c2)cc2cn(C)nc12 [Compound 157, 7-(2,7-dimethyl-2H-indazol-5-yl)-3-(2,2,6,6-tetramethylpiperidin-4-yl)quinazolin-4(3H)-one hydrochloride] | > 10 µM | > 10 µM
10 | 1 to 10 µM | – | > 10 µM | Cc1cc(-c2ccc3c(=O)n(C4CCN(C)CC4)cnc3n2)cc2cn(C)nc12 [Compound 173, 7-(2,7-dimethyl-2H-indazol-5-yl)-3-(1-methylpiperidin-4-yl)pyrido[2,3-d]pyrimidin-4(3H)-one] | > 10 µM | > 10 µM
11 | < 0.1 µM | – | 0.1 to 1 µM | Cc1cc(-c2ccc3c(=O)n(C4CCNCC4)cnc3c2)cc2cn(C)nc12 [Compound 174, 7-(2,7-dimethyl-2H-indazol-5-yl)-3-(piperidin-4-yl)quinazolin-4(3H)-one] | 0.1 to 1 µM | 0.1 to 1 µM
12 | – | 0.1 to 1 µM | < 0.1 µM | Cc1cn2nc(-c3ccc4c(=O)n([C@H]5CCN[C@H](C)C5)ncc4c3)cc(C)c2n1 [Compound 273] | < 0.1 µM | 0.1 to 1 µM
13 | – | > 10 µM | > 10 µM | Cc1cn2nc(-c3ccc4c(=O)n(C5CCOCC5)ncc4c3)cc(C)c2n1 [Compound 275] | – | –
14 | – | 0.1 to 1 µM | 0.1 to 1 µM | CC[C@@H]1C[C@@H](n2ncc3cc(-c4cc(C)c5nc(C)cn5n4)ccc3c2=O)CCN1 [Compound 305, 6-{2,8-dimethylimidazo[1,2-b]pyridazin-6-yl}-2-[(2R,4S)-2-ethylpiperidin-4-yl]phthalazin-1-one] | 0.1 to 1 µM | 1 to 10 µM
